Where a name gives a salt, the structure may show the parent alone.
What follows are compounds tested on TNF-α (TNF-alpha) production in human PBMC (peripheral blood mononuclear cells) (assay: Inhibition of TNF-alpha production in human PBMC assay (MSD technology)). Settings: Homo sapiens, PBMC, LPS stimulated, measured and/or mean of n measurements, read-out: PBMC pIC50 (MSD assay), inhibition of TNF-α production (converted).
Format: cell-based
Description: A 96-well plate (96 MicroWell™ Plates Nunclon™Δ-High Flange Design, Fisher Scientific UK, Bishop Meadow Road, Loughborough LE 11 5 RG, Leicestershire, UK) is prepared by initially adding to column 1 ca. 10 mM of test compound dissolved in DMSO. […] The compound is further diluted with DMSO into columns 2 to 9 by 8 successive 3-fold dilutions using the Biomek® FX Laboratory Automation Workstation (Beckman Coulter, Inc., 4300 N. Harbor Boulevard, P.O. Box 3100, Fullerton, Calif. 92834-3100, USA). Column 10 is used as a DMSO negative control (High Signal, 0% response), whilst column 11, which contains 10 mM of the PDE4 inhibitor roflumilast, is used as a positive control (Low Signal, 100% response). About 1 μl (about 1 ul) of compound is transferred to the compound plate using the Biomek® FX.
PBMC cells (peripheral blood mononuclear cells) are prepared from heparinised human blood (using 1% v/v Heparin Sodium 10001 U/ml Endotoxin Free, Leo Laboratories Ltd., Cashel Road, Dublin 12. Ireland, Cat No: PL0043/0149) from normal volunteers using the Accuspin™ System-Histopaque®-1077 essentially (Sigma-Aldrich Company Ltd., The Old Brickyard New Rd, Gillingham, Dorset SP8 4XT, UK). About 20 ml of blood is overlaid onto 15 ml Histopaque® in Accuspin™ tubes. The tube is then centrifuged at about 800 g for ca. 20 minutes. The cells are collected from the interface, washed by centrifugation (ca. 1300 g, ca. 10 minutes) and resuspended in RPMI1640 medium (Low endotoxin RPMI1640 medium, Cat No: 31870-025, Invitrogen Corporation Invitrogen Ltd, 3 Fountain Drive, Inchinnan Business Park, Paisley PA4 9RF, UK) containing 10% foetal calf serum, 1% L-glutamine (Invitrogen Corporation, Cat No: 25030024) and 1% penicillin/streptomycin (Invitrogen Corporation, Cat No: 15140-122). Viable cells are counted by trypan blue staining and diluted to 1×10^6 viable cells/ml. About 50 μl (about 50 ul) of diluted cells and about 75 μl (about 75 ul) of LPS (ca. 1 ng/ml final; Sigma Cat No: L-6386) are added to the compound plate, which is then incubated at 37° C., 5% CO2, for 20 hours.
The supernatant is removed and the concentrations of TNF-α are determined by electrochemiluminescence assay using the Meso Scale Discovery (MSD) technology (Meso Scale Discovery, 9238 Gaither Road, Gaithersburg, Md. 20877, USA). See the “TNF-α (TNF-alpha) MSD Assay” described below for typical details.
For the following Examples, which are compounds of formula (I) or salts thereof, and generally when using the one of the above assays, or a generally similar or generally analogous assay, the measured and/or mean pIC50 values for inhibition of TNF-α (TNF-alpha) production in PBMCs are generally as follows (subject to a possibly-large variability or error):
Using the Biomek FX, 25 μl (25 ul) of MSD Human Serum Cytokine Assay Diluent (Meso Scale Discovery, 9238 Gaither Road, Gaithersburg, Md. 20877) is added to a 96-well High-Bind MSD plate pre-coated with anti-hTNF alpha capture antibody (MA6000) and then incubated for 24 hours at 4° C. to prevent non-specific binding. About 20 μl (ul) of supernatant from the PBMC plate or about 40 μl (ul) of supernatant from the whole blood (WB) plate are then transferred from columns 1-11 to columns 1-11 of the MSD plate using the Biomek FX. About 20 μl (ul) of TNF-α standard (Cat No. 210-TA; R&D Systems Inc., 614 McKinley Place NE, Minneapolis, Minn. 55413, USA) are added to column 12 of the MSD plate to generate a standard calibration curve (about 0 to 30000 pg/ml final).
For the Whole Blood assay, plates are washed after 2 hours shaking with a Skanwasher 300 version B (Skatron Instruments AS. PO Box 8, N-3401 Lier, Norway). About 40 μl (ul) of diluted sulfo-TAG antibody (ca. […] final) is added, the plates are shaken at room temperature for 1 hours, and the plates washed again as above. About 150 μl (ul) of Read Buffer T (2×) is added to the plates, which are then read on a MSD Sector 6000. […]

Question: With `CCc1nc2c(cnn2CC)c(NC2CCOCC2)c1CNC(=O)c1ccc(NC(=O)CCCCCCCN(C)CCO)cc1` [Example 1A1, N-{[1,6-Diethyl-4-(tetrahydro-2H-pyran-4-ylamino)-1H-pyrazolo[3,4-b]pyridin-5-yl]methyl}-4-({8-[(2-hydroxyethyl)(methyl)amino]octanoyl}amino)benzamide dihydrochloride] as the compound, how does the IC50 read?
Answer: ~0.501 nM

Question: Which IC50 does the source give for `CCc1nc2c(cnn2CC)c(NC2CCOCC2)c1CNC(=O)c1ccc(CCCCOCCCCN(C)CCO)cc1` [Example 19, formate salt of N-{[1,6-diethyl-4-(tetrahydro-2H-pyran-4-ylamino)-1H-pyrazolo[3,4-b]pyridin-5-yl]methyl}-4-[4-({4-[(2-hydroxyethyl)(methyl)amino]butyl}oxy)butyl]benzamide] here?
Answer: ~0.251 nM

Question: Which IC50 does the source give for `CCn1ncc2c(NC3CCOCC3)c(CNC(=O)c3ccc(NC(=O)CCCCCCCN(C)CCO)cc3)cnc21` [Example 26, Formate salt of N-{[1-ethyl-4-(tetrahydro-2H-pyran-4-ylamino)-1H-pyrazolo[3,4-b]pyridin-5-yl]methyl}-4-({8-[(2-hydroxyethyl)(methyl)amino]octanoyl}amino)benzamide] here?
Answer: ~15.8 nM

Same assay, conditions: LPS stimulated, measured and/or mean of n measurements

Question: With `CCc1nc2c(cnn2CC)c(NC2CCOCC2)c1CNC(=O)c1ccc(NC(=O)CCCCCCCN(C)CCO)cc1` [Example 1B, N-{[1,6-diethyl-4-(tetrahydro-2H-pyran-4-ylamino)-1H-pyrazolo[3,4-b]pyridin-5-yl]methyl}-4-({8-[(2-hydroxyethyl)(methyl)amino]octanoyl}amino)benzamide] as the compound, how does the “PBMC pIC50 (MSD assay), inhibition of TNF-α production” value (“PBMC pIC50 (MSD assay), inhibition” for short) read?
Answer: about 9.2 (n = 29)

Question: With `CCc1nc2c(cnn2CC)c(NC2CCN(C(N)=O)CC2)c1CNC(=O)c1ccc(NC(=O)CCCCCCCN(C)CCO)cc1.O=C(O)C(F)(F)F` [Example 9, 4-({1,6-diethyl-5-[({[4-({8-[(2-hydroxyethyl)(methyl)amino]octanoyl}amino)phenyl]carbonyl}amino)methyl]-1H-pyrazolo[3,4-b]pyridin-4-yl}amino)-1-piperidinecarboxamide trifluoroacetate (salt)] as the compound, how does the “PBMC pIC50 (MSD assay), inhibition” value read?
Answer: about 8.4 (n = 4)

Question: How did the “PBMC pIC50 (MSD assay), inhibition” value turn out when `CCc1nc2c(cnn2CC)c(NC2CCN(C(N)=O)CC2)c1CNC(=O)c1ccc(CCCCOCCCCN2CCOCC2)cc1` [Example 23A, 4-({1,6-diethyl-5-[({[4-(4-{[4-(4-morpholinyl)butyl]oxy}butyl)phenyl]carbonyl}amino)methyl]-1H-pyrazolo[3,4-b]pyridin-4-yl}amino)-1-piperidinecarboxamide] was run?
Answer: about 9.1 (n = 8)

Reference: US20090325952A1, “PYRAZOLO[3,4-B]PYRIDINE COMPOUNDS, AND THEIR USE AS PDE4 INHIBITORS” (Glaxo Group Limited, priority 2006, published 2009)
